≈ marks a conversion by molar mass, not a printed value.
Key:
Format in all cases: functional
[1] = system: Enterococcus faecalis; test: Antimicrobial activity against vancomycin-sensitive Enterococcus faecalis 20 assessed as time required to induce post antibiotic sub-MIC effect at 0.2 times MIC after 1 hr by plate counting method; conditions: Enterococcus faecalis, 20, 1 h
[2] = system: Enterococcus faecalis; test: Antimicrobial activity against vancomycin-resistant Enterococcus faecalis 609 assessed as time required to induce sub-MIC effect at 0.2 times MIC after 1 hr by plate counting method; conditions: Enterococcus faecalis, 609, 1 h
[3] = system: Enterococcus faecalis; test: Antimicrobial activity against vancomycin-sensitive Enterococcus faecalis ATCC 29212 assessed as time required to induce sub-MIC effect at 0.2 times MIC after 1 hr by plate counting method; conditions: ATCC 29212, 1 h
[4] = system: Staphylococcus aureus; test: Antimicrobial activity against methicillin-resistant, vancomycin-susceptible Staphylococcus aureus vs1 assessed as time required to induce post antibiotic sub-MIC effect at 0.3 times MIC after 1 hr by plate counting method; conditions: vs1, 1 h
[5] = system: Staphylococcus aureus; test: Antimicrobial activity against methicillin-resistant, vancomycin-susceptible Staphylococcus aureus vs1 assessed as post antibiotic effect at 10 times MIC after 1 hr by plate counting method; conditions: vs1, 1 h
[6] = system: Staphylococcus aureus; test: Antimicrobial activity against methicillin-susceptible, vancomycin-susceptible Staphylococcus aureus sox1 by microdilution method
[7] = system: Streptococcus pneumoniae; test: Antimicrobial activity against Penicillin-, erythromycin-resistant Streptococcus pneumoniae 37 assessed as time required to induce sub-MIC effect at 0.3 times MIC after 1 hr by plate counting method; conditions: Streptococcus pneumoniae, 37, 1 h
[8] = system: Staphylococcus aureus; test: Antimicrobial activity against methicillin-resistant, vancomycin-resistant Staphylococcus aureus 770 assessed as time required to induce post antibiotic sub-MIC effect at 0.4 times MIC after 1 hr by plate counting method; conditions: Staphylococcus aureus, 770, 1 h
[9] = system: Staphylococcus aureus; test: Antimicrobial activity against methicillin-susceptible, vancomycin-susceptible Staphylococcus aureus sox1 assessed as time required to induce sub-MIC effect at 0.3 times MIC after 1 hr by plate counting method; conditions: sox1, 1 h
[10] = system: Streptococcus pneumoniae; test: Antimicrobial activity against Penicillin-, erythromycin-resistant Streptococcus pneumoniae 37 assessed as time required to induce post antibiotic sub-MIC effect at 0.2 times MIC after 1 hr by plate counting method; conditions: Streptococcus pneumoniae, 37, 1 h
[11] = system: Streptococcus pneumoniae; test: Antimicrobial activity against Penicillin-susceptible Streptococcus pneumoniae s502 assessed as time required to induce sub-MIC effect at 0.2 times MIC after 1 hr by plate counting method
[12] = system: Staphylococcus aureus; test: Antimicrobial activity against methicillin-resistant, vancomycin-susceptible Staphylococcus aureus vs1 assessed as time required to induce sub-MIC effect at 0.4 times MIC after 1 hr by plate counting method; conditions: vs1, 1 h
[13] = system: Streptococcus pneumoniae; test: Antimicrobial activity against Penicillin-susceptible Streptococcus pneumoniae ATCC 49617 assessed as time required to induce sub-MIC effect at 0.4 times MIC after 1 hr by plate counting method; conditions: ATCC 49617, 1 h
[14] = system: Enterococcus faecalis; test: Antimicrobial activity against vancomycin-sensitive Enterococcus faecalis 20 assessed as time required to induce sub-MIC effect at 0.2 times MIC after 1 hr by plate counting method; conditions: Enterococcus faecalis, 20, 1 h
[15] = system: Enterococcus faecalis; test: Antimicrobial activity against vancomycin-resistant Enterococcus faecalis 266 by microdilution method
[16] = system: Streptococcus pneumoniae; test: Antimicrobial activity against Penicillin-intermediate Streptococcus pneumoniae s1234 assessed as time required to induce sub-MIC effect at 0.2 times MIC after 1 hr by plate counting method
[17] = system: Staphylococcus aureus; test: Antimicrobial activity against methicillin-resistant, vancomycin-resistant Staphylococcus aureus 770 assessed as time required to induce post antibiotic sub-MIC effect at 0.3 times MIC after 1 hr by plate counting method; conditions: Staphylococcus aureus, 770, 1 h
[18] = system: Streptococcus pneumoniae; test: Antimicrobial activity against Penicillin-intermediate Streptococcus pneumoniae s1234 assessed as time required to induce post antibiotic sub-MIC effect at 0.4 times MIC after 1 hr by plate counting method; conditions: s1234, 1 h
[19] = system: Streptococcus pneumoniae; test: Antimicrobial activity against Penicillin-susceptible Streptococcus pneumoniae s502 assessed as time required to induce post antibiotic sub-MIC effect at 0.2 times MIC after 1 hr by plate counting method; conditions: s502, 1 h
[20] = system: Staphylococcus aureus; test: Antimicrobial activity against methicillin-resistant, vancomycin-susceptible Staphylococcus aureus vs1 assessed as time required to induce post antibiotic sub-MIC effect at 0.4 times MIC after 1 hr by plate counting method; conditions: vs1, 1 h
[21] = system: Staphylococcus aureus; test: Antimicrobial activity against methicillin-susceptible, vancomycin-susceptible Staphylococcus aureus sox1 assessed as time required to induce sub-MIC effect at 0.4 times MIC after 1 hr by plate counting method; conditions: sox1, 1 h
[22] = system: Staphylococcus aureus; test: Antimicrobial activity against methicillin-resistant, vancomycin-intermediate Staphylococcus aureus 510 assessed as time required to induce post antibiotic sub-MIC effect at 0.4 times MIC after 1 hr by plate counting method; conditions: Staphylococcus aureus, 510, 1 h
[23] = system: Staphylococcus aureus; test: Antimicrobial activity against methicillin-resistant, vancomycin-intermediate Staphylococcus aureus 510 assessed as time required to induce post antibiotic sub-MIC effect at 0.3 times MIC after 1 hr by plate counting method; conditions: Staphylococcus aureus, 510, 1 h
[24] = system: Enterococcus faecalis; test: Antimicrobial activity against vancomycin-sensitive Enterococcus faecalis 10 assessed as time required to induce post antibiotic sub-MIC effect at 0.3 times MIC after 1 hr by plate counting method; conditions: Enterococcus faecalis, 10, 1 h
[25] = system: Streptococcus pneumoniae; test: Antimicrobial activity against Penicillin-susceptible Streptococcus pneumoniae ATCC 49617 assessed as time required to induce sub-MIC effect at 0.2 times MIC after 1 hr by plate counting method; conditions: ATCC 49617, 1 h
[26] = system: Streptococcus pneumoniae; test: Antimicrobial activity against Penicillin-intermediate Streptococcus pneumoniae s1234 assessed as time required to induce post antibiotic sub-MIC effect at 0.2 times MIC after 1 hr by plate counting method; conditions: s1234, 1 h
[27] = system: Staphylococcus aureus; test: Antimicrobial activity against methicillin-resistant, vancomycin-hetroresistant Staphylococcus aureus 618 assessed as time required to induce post antibiotic sub-MIC effect at 0.4 times MIC after 1 hr by plate counting method; conditions: Staphylococcus aureus, 618, 1 h
[28] = system: Enterococcus faecalis; test: Antimicrobial activity against vancomycin-sensitive Enterococcus faecalis 20 assessed as time required to induce sub-MIC effect at 0.3 times MIC after 1 hr by plate counting method; conditions: Enterococcus faecalis, 20, 1 h
[29] = system: Streptococcus pneumoniae; test: Antimicrobial activity against Penicillin-, erythromycin-resistant Streptococcus pneumoniae 37 assessed as time required to induce post antibiotic sub-MIC effect at 0.4 times MIC after 1 hr by plate counting method; conditions: Streptococcus pneumoniae, 37, 1 h
[30] = system: Streptococcus pneumoniae; test: Antimicrobial activity against Penicillin-susceptible Streptococcus pneumoniae ATCC 49617 assessed as time required to induce sub-MIC effect at 0.3 times MIC after 1 hr by plate counting method; conditions: ATCC 49617, 1 h
[31] = system: Streptococcus pneumoniae; test: Antimicrobial activity against Streptococcus pneumoniae ATCC 10813 infected in neutropenic ICR mouse assessed as post antibiotic effect at 1.56 to 100 mg/kg, sc administered 14 hrs post infection; conditions: dose mg/kg 1.56-100; route subcutaneous
[32] = system: Streptococcus pneumoniae; test: Antimicrobial activity against Penicillin-intermediate Streptococcus pneumoniae s1234 assessed as time required to induce post antibiotic sub-MIC effect at 0.3 times MIC after 1 hr by plate counting method; conditions: s1234, 1 h
[33] = system: Enterococcus faecalis; test: Antimicrobial activity against vancomycin-resistant Enterococcus faecalis 609 assessed as time required to induce post antibiotic sub-MIC effect at 0.3 times MIC after 1 hr by plate counting method; conditions: Enterococcus faecalis, 609, 1 h
[34] = system: Staphylococcus aureus; test: Antimicrobial activity against methicillin-resistant, vancomycin-susceptible Staphylococcus aureus vs1 by microdilution method

CCO/N=C(\C(=O)N[C@@H]1C(=O)N2C(C(=O)[O-])=C(Sc3nc(-c4cc[n+](C)cc4)cs3)CS[C@H]12)c1nsc(NP(=O)(O)O)n1 [CEFTAROLINE FOSAMIL]
PAE [1]: 4.1 h | time [2]: 1.4 h | PAE [3]: 3.1 h | time [4]: 4.7 h | PAE [5]: 1.2 h | MIC [6]: 0.25 µg/mL (≈ 0.365 µM) | time [7]: 0.5 h | time [8]: 7.1 h | PAE [9]: 0.9 h | time [10]: 1.9 h | PAE [11]: 0 h | time [12]: 1.2 h | PAE [13]: 0.8 h | time [14]: 0.9 h | MIC [15]: 2 µg/mL (≈ 2.92 µM) | PAE [16]: 0 h | time [17]: 5 h | PAE [18]: 2.5 h | PAE [19]: 2.7 h | time [20]: 6.7 h | PAE [21]: 1.6 h | time [22]: > 10 h | time [23]: > 9.1 h | PAE [24]: 6.6 h | PAE [25]: 0.2 h | PAE [26]: 1.4 h | time [27]: 2.9 h | PAE [28]: 1.3 h | time [29]: 3.7 h | PAE [30]: 0.7 h | PAE [31]: 1.5 h | PAE [32]: 1.8 h | time [33]: 3.3 h | MIC [34]: 0.5 µg/mL (≈ 0.73 µM)
